Reference: patent US11523610B2, “Regulating plant growth using a diapocarotenoid” (King Abdullah University of Science and Technology, priority 2018, dated 2022)

Key:
[1] = LC-MS quantification of anchorene in Arabidopsis tissues; details: 12-day-old seedlings incubated 6 hours with 20 μM; compared to control and OH-APO10′
Protocol: About 30 mg (30-40 mg) of freeze-dried and ground Arabidopsis seedlings tissues were extracted using 1 mL of acetonitrile with anti-oxidant [0.1% butylated hydroxytoluene (BHT)] for 15 min in an ultrasonic bath (Branson® 5510EDTH, 25° C., 15 min), followed by centrifugation for 8 min at 13000 rpm at 4° C. The collected supernatant was dried using a concentrator (Labconco RapidVap® System). The extract was derivatized (SCHEME 3) with 50 μL of derivatization solution containing 5 mg/mL derivatization reagent (N^2,N^2,N^4,N^4-tetraethyl-6-hydrazineyl-1,3,5-triazine-2,4-diamine) (Chemspace) and 1% formic acid in methanol at 37° C. for 15 min. Then the sample solution was diluted to 150 μL with 1% formic acid in methanol and filtered by using 0.22 μm filter before LC-MS analysis.
The quantitative analysis of derivative anchorene were carried out on HPLC-Q-Trap MS/MS. Chromatographic separation was achieved on an Acquity UPLC CSH C18 column (50×2.1 mm; 1.7 μm; Waters) using a mobile phase consisting of water: acetonitrile (95:5, v:v, A) and pure acetonitrile (B), both containing 0.1% formic acid. A gradient was applied, starting with 10% B and increasing to 40% B over 5 min. Then 15% B was increased
within 10 min followed by an increase of 45% B over 2 min. And then 100% B was maintained for 10 min. To equilibrate the column before the next run, the mobile phase was adjusted back to 10% B in 1 min and this concentration was maintained for 8 min prior to the next sample injection. A flow rate of 0.15 mL/min and a column temperature of 40° C. were maintained throughout the run. The eluent of the column was introduced to the mass spectrometer using turbo spray ion source in positive mode. The injection volume was 10 μL. The conditions of the mass spectrometer were set as following: curtain gas: 30; ion spray voltage: 5 kV; temperature: 400° C.; ion source gas 1: 30; ion source gas 2: 40; declustering potential, 55; entrance potential: 10; collision energy: 25; collision cell exit potential: 10. […]

[2] = tested on: Arabidopsis seedlings (anchor roots); experiment: ANR formation under OH-Apo10′ and OH-Apo12′ treatment; format: in vivo; details: 10 μM, counted at 10 DAG
Source text: FIGS. 21A-D show a diapocarotenoid precursor (OH-Apo12′) is converted into anchorene in plants, according to one or more embodiments of the present disclosure. […] (B) is a histogram showing quantification of achorene in mock, OH-Apo10′, and OH-Apo12′ fed Arabidopsis seedlings. (C) is a histogram showing ANR emergence in mock, OH-Apo10′, and OH-Apo12′ fed seedlings. […] For B and C, two-tailed Student's t-test, **P<0.01, *** P<0.001; in B, n=4; in C data are presented as mean ±SD from 3 independent replicates; in B, 12-day-old seedlings were incubated with indicated chemicals for 6 hours and 20 μM OH-Apol10′ and OH-Apo12′ were used; and C, 10 μM OH-Apol ′ and OH-Apo12′ were used and the ANR No./plant was counted at 10 DAG. For the quantification of ANR formation under OH-Apo10′ and OH-Apo12′ treatment conditions, the sterilized Arabidopsis seeds were exposed to light for 24 hours first, and then plated to 1/2 MS plates with indicated chemicals; the plates were kept under darkness (22° C.) for another two days and then exposed to long day light conditions for another 7 days to count the ANR emergence.

Compound | anchorene content of fed seedlings [1] | anchor roots formed compared to mock (ANR No./plant) [2]
CC1=C(/C=C/C(C)=C/C=C/C(C)=C/C=C/C=C(\C)C=O)C(C)(C)CC(O)C1 (stereo not drawn) [OH-APO12′, all-trans-3-OH-β12′-carotenal] | much more anchorene | formed more anchor routes
CC(C=CC=O)=CC=CC=C(C)C=CC=C(C)C=CC1=C(C)CC(O)CC1(C)C (stereo not drawn) [OH-APO10′, reference compound] |  | not
